Where “and” joins values, the source holds several entries; their conditions need not be identical. Identical values can stand only once. Like-named read-outs stand apart in the source and are kept apart here.
How the values were obtained:
A. fumigatus SglA = A. fumigatus SglA (Aspergillus fumigatus, UniProt Q4WXA7); test: Ergosterol 3β-D-glucoside (ErgGlc) hydrolysis by SglA, ergosterol quantified by HPLC; format: biochemical
Method: We assessed the potential inhibition of SglA enzymatic activity toward ErgGlc by the seven derivatives at concentrations of 0.1, 1, 10, and 100 μM.
A 50-μL volume of wild-type Af SglA containing 10 ng of protein (0.11 pmol) and 50 μL of mixed micelles of lipid and Triton X-100 in 50 mM sodium acetate buffer (pH 5.5) with 150 mM NaCl, 5 mM βME, and 5 mM DTT were mixed and incubated at 37°C for 20 min (ErgGlc; Avanti Polar Lipids). After the incubation period, each reaction was quenched with a 2:1 chloroform-methanol solution, and the organic phase was collected and dried. Then, the lipid content was resuspended in […] methanol and analized by HPLC using Agilent 1260 Infinity II (Agilent Technologies). Total ErgGlc and ergosterol were detected at 282 nm on a C8 column with a flow rate of 0.5 mL/min in methanol-water (90:10) buffered with 1 mM ammonium formate and 0.2% formic acid.

[1] = tested on: human lung epithelial cancer cell line A549; details: 24 h
Method: The cells were maintained in Dulbecco’s modified Eagle medium (DMEM) containing 10% fetal bovine serum (FBS) and 1% penicillin-streptomycin. At passage 11, 10^5 cells were transferred into each well of 96-well plates and cultured for 18 to 24 h to allow the cells to adhere to the well surface. Next, the medium was removed, and fresh medium containing the selected compounds at concentration range of 1 to 512 μM was added to the wells. Controls with equivalent serial concentrations of DMSO were also evaluated and compared with a control without DMSO. The plate was incubated at 37°C with 5% CO2. After 24 h, the supernatant was removed and 50 μL of 5 mg/mL 3-(4,5-dimethylthiazol-2-yl)-2,5-diphenyltetrazoliumbromide (MTT) solution in PBS was added to each well. The plates were incubated for an additional 4 h, and the formazan crystals formed inside the cell were dissolved by adding 50 μL DMSO. Next, the absorbance was measured at 570 nm, and the calculated LD50 was divided by the IC50 of each hit in order to determine the SI of each compound.

wild-type Af [2] = test: Ergosterol 3-β-D-glucoside accumulation in live cells (LC-MS); format: cell-based, Aspergillus fumigatus; details: 48 h; for ErgGlc accumulation versus control (untreated wild-type Af): 100 and 500 μM
Method: Wild-type Af ΔKu80pyrG1a and the mutant Δsgla strain were cultivated in yeast extract-glucose medium (YAG) (2% [wt/vol] glucose, 0.5% [wt/vol] yeast extract, 1× trace elements, 1× amino acid solution, 2% [wt/vol] bacteriological agar) for 48 h at 37°C. High-nitrate salts, trace elements, and amino acid solutions were prepared as previously described ([37]). The medium was supplemented with 1.2 g/L of uracil and uridine (UU), generating YAG+UU medium when the strain ΔKu80pyrG1a was used. After that, the a conidial suspension in water was obtained, and a pellet with 1 × 10^7 conidia was treated in minimal medium broth pH 6.5 (MM or MM+UU) (1% [wt/vol] glucose, 1× high-nitrate salts, 1× trace elements) for 48 h at 37°C under agitation, with the hits selected, according to the toxicity criteria, at various concentrations. […] After that, the resultant hyphal pellet was used for lipid extraction. Then, the total lipid was extracted as described by Singh et al. ([39]). The dried samples were resuspended in 2:1 chloroform-methanol for liquid chromatography-mass spectrometry (LC-MS) analysis. A standard ErgGlc from Avanti Polar Lipids was used as a control for the calibration curve. Data were normalized to the total inorganic phosphate content in the sample.

wild-type Af [3] = test: Filamentation assay (hyphal length); format: cell-based, Aspergillus fumigatus; details: 12 h
Method: To evaluate hyphal growth, conidial suspensions of the Af wild-type strain ΔKu80pyrG1a and the Δsgla and Δsgla+SGLA strains were obtained as described above. Then, the assay conditions were performed as previously described by Fernandes et al. ([16]). For that, 1 × 10^5 conidia of strain ΔKu80pyrG1a were inoculated onto a glass-bottom dish containing 2 mL of MM or MM+UU with and without the experimental compounds in various concentrations and grown at 37°C for 10 to 12 h. MM broth without the compounds were used for the mutant and the reconstituted strains. The living hyphae growing attached to the glass were analyzed by differential inference contrast (DIC) microscopy using a Zeiss Observer D.1 microscope, and the hyphal length was measured using ImageJ software.

Af wild-type strain [4] = test: Lung fungal burden quantification by qPCR; format: in vivo, CBA/J mice; details: hit B 20, hit C 60, B7 5 mg/kg/day intraperitoneally
Method: Lung fungal burden was assessed by the determination of the amplification of fungal 18S DNA by qPCR. The lungs of euthanized mice were aseptically removed and immediately frozen in liquid nitrogen. Genomic DNA extraction was carried out as previously described by Malavazi and Goldman ([40]) with modifications. Previous to the genomic DNA extraction, the lungs were lyophilized for 2 to 3 days, ground using 2-mm glass beads, resuspended in 1 mL of lysis buffer, and vortexed thoroughly. One milliliter of phenol-chloroform–isoamyl alcohol (25:24:1), stabilized and saturated with 100 mM Tris-EDTA to pH 8.0 (Sigma-Aldrich), was added, and the mixture was vortexed for 10 min to extract nucleic acid. The mixture was centrifuged, and the aqueous phase was collected, and the genomic DNA was precipitated with 500 μL isopropanol. The DNA pellet was washed with 500 μL cold 70% ethanol and air dried, and the DNA pellet was resuspended in 100 μL of DNase-free water. The primers Fungal 18S 5′ UTR fw ([…]) and 3′ UTR rv ([…]) and the mouse glyceraldehyde-3-phosphate dehydrogenase (GAPDH) primers 5′ UTR fw ([…]) and 3′ UTR rv ([…]) were amplified using SYBR green PCR master mix (Thermo Fisher Scientific).

Af SglA = Af SglA (Aspergillus fumigatus, UniProt Q4WXA7); test: HTS / resorufin 3β-D-glucopyranoside (ResGlp) enzymatic assay of SglA; format: biochemical; details: primary screen, ResGlp as the substrate, single compounds 0.25 to 4 μM
Sequence of Af SglA (Q4WXA7 entry or part of it): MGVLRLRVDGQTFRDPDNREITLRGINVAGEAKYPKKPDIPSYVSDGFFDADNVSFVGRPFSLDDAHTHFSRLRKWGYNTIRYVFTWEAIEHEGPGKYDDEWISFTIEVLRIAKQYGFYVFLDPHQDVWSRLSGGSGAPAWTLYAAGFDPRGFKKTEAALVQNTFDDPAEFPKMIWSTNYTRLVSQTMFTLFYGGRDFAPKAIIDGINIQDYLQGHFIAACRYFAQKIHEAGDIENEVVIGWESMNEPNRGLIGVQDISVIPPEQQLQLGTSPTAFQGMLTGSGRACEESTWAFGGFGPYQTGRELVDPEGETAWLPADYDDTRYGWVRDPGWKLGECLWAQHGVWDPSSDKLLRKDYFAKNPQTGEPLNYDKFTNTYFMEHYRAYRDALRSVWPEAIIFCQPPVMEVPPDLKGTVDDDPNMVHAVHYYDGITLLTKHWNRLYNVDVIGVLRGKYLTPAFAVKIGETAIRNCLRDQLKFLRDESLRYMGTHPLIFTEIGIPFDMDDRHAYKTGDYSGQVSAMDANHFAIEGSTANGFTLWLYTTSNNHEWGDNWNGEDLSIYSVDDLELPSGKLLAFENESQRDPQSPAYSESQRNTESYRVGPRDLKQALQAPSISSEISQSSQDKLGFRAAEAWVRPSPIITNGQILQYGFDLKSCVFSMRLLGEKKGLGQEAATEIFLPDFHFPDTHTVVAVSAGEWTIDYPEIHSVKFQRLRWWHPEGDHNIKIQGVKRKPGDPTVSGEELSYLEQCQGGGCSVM
Method: (§1) Resorufin 3β-D-glucopyranoside (ResGlp; Sigma-Aldrich) enzyme kinetic assays were performed according to methods described by Pereira de Sa et al. ([17]). Reaction buffer contained 50 mM citric acid, 176 mM K2HPO4 (pH 6), 0.01% Tween 20, and 10 mM sodium taurocholate. The reaction was carried out in a black 96-well plate using 0.23 pmol of SglA with 100 μM ResGlp substrate. 10 μL/well of ResGlp was added to each well and the reaction was initiated by adding 20 μL enzyme (0.23 pmol). After incubation at 37°C for 30 min, the fluorescence was read at an excitation of 570 (±10) nm and an emission of 610 (±10) nm on a VersaMax microplate reader from Molecular Devices. A standard curve was prepared with serial dilutions of the free fluorophore, resorufin, in the same volume of assay buffer. All reactions were linear with respect to time and protein concentration, and the pH, temperature, and dimethyl sulfoxide (DMSO) optimal tolerance were verified.
(§2) A ChemBridge DIVERSet-CL library (ChemBridge, San Diego, CA) containing 50,000 compounds was screened to identify small molecules that inhibit Af SglA. The library was prepared in a 96-well plate format containing a cocktail of 10 compounds per well at 1 mM each in 100% DMSO. The cocktail plates were first diluted to 100 μM each (1:10 dilution in Dulbecco’s phosphate-buffered saline [DPBS]), resulting in 10% DMSO. In order to screen the compound cocktails at […] in 1% DMSO in a final reaction volume of 30 μL, an aliquot of 3 μL was added to 17 μL of buffer containing 0.23 pmol of enzyme and the reaction was started by adding 10 μL of 100 μM ResGlp. A negative control without enzyme and positive controls with and without DMSO were prepared. The plates were incubated at 37°C for 30 min. The Z′ factor was used for the assessment of the efficiency of the HTS assay for each plate. Values greater than 0.5 are considered indicators of excellent screening assay quality ([36]).

Af wild-type strain [5] = test: Mouse model of pulmonary aspergillosis, survival; format: in vivo, CBA/J mice
Method: Male and female CBA/J mice 5 to 6 weeks old were purchased from Envigo and allowed 1 week to acclimate upon arrival. One day prior to infection, the animals were immunosuppressed with 100 mg/kg of the corticosteroid triamcinolone acetonide (Alfa Aesar) subcutaneously as previously described ([16]). On the day of the infection, the animals were initially anesthetized with a ketamine-xylazine solution (95 mg of ketamine and 5 mg of xylazine per kg of body weight) intraperitoneally and then infected with 2.5 × 10^4 Af wild-type ΔKu80pyrG+ conidia in 20 μL of PBS intranasally. One hour after the procedure, intraperitoneal treatment with hit B (5 and 20 mg/kg/day) and hit C (20 and 60 mg/kg/day) was started and continued until 30 days postinfection. Mice that survived until day 30 were euthanized by CO2 inhalation and used for organ fungal burden determinations. A similar procedure was performed for derivative B7 at a dose of 5 mg/kg/day.

[6] = tested on: O=c1ccc2nc3ccc(O[C@@H]4O[C@H](CO)[C@@H](O)[C@H](O)[C@H]4O)cc3oc-2c1; test: HTS / resorufin 3β-D-glucopyranoside (ResGlp) enzymatic assay of SglA; format: biochemical, Aspergillus fumigatus; details: other: substrate kinetics, 0.23 pmol of SglA; pH 6.0; 37.0 °C
Method: as §1, §2

[7] = substrate in Triton X-100 mixed micelles, 0.11 pmol SglA, 20 min
[8] = ErgGlc as the substrate, read-out: IC50

Sequence of A. fumigatus SglA (Q4WXA7 entry or part of it): as above

`CC(C)[C@@H](C)/C=C/[C@@H](C)[C@H]1CC[C@H]2C3=CC=C4C[C@@H](O[C@@H]5O[C@H](CO)[C@@H](O)[C@H](O)[C@H]5O)CC[C@]4(C)[C@H]3CC[C@]12C` [ErgGlc, ergosterol 3β-D-glucoside, reference compound] was tested, and the Km (A. fumigatus SglA; [7]) was 0.57 ± 0.09 mol% and the kcat (A. fumigatus SglA; [7]) was 0.73 ± 0.04 s⁻¹.
For `Cc1cc(CNc2cc(N)ncn2)c2[nH]c(C)c(C)c2c1` [Hit B1, N-[(2,3,5-trimethyl-1H-indol-7-yl)methyl]pyrimidine-4,6-diamine], the IC50 (A. fumigatus SglA; [8]) was over 100 µM.
`Cc1[nH]c2ccc(CNc3cc(NCCO)ncn3)cc2c1C` [Hit B2, 2-[(6-{[(2,3-dimethyl-1H-indol-5-yl)methyl]amino}pyrimidin-4-yl)amino]ethanol] was tested, and the IC50 (A. fumigatus SglA; [8]) was 15 µM.
Compound `CCc1[nH]c2ccc(CNc3ccnc(N)n3)cc2c1C` [Hit B3, N~4~-[(2-ethyl-3-methyl-1H-indol-5-yl)methyl]pyrimidine-2,4-diamine] has an IC50 (A. fumigatus SglA; [8]) of over 100 µM.
`Cc1cc(CNc2ccnc(N)n2)c2[nH]c(C)c(C)c2c1` [Hit B4, N~4~-[(2,3,5-trimethyl-1H-indol-7-yl)methyl]pyrimidine-2,4-diamine] was tested, and the IC50 (A. fumigatus SglA; [8]) was over 100 µM.
Work on `Cc1[nH]c2ccc(CNc3cc(N4CCOCC4)ncn3)cc2c1C` [Hit B5, N-[(2,3-dimethyl-1H-indol-5-yl)methyl]-6-morpholin-4-ylpyrimidin-4-amine] yielded an IC50 (A. fumigatus SglA; [8]) of 15 µM.
Compound `CCc1[nH]c2ccc(CNc3cc(C)nc(NC)n3)cc2c1C` [Hit B6, N~4~-[(2-ethyl-3-methyl-1H-indol-5-yl)methyl]-N~2~,6-dimethylpyrimidine-2,4-diamine] has an IC50 (A. fumigatus SglA; [8]) of 9 µM.
`CCc1[nH]c2ccc(CNc3nc(C)cc(NC)n3)cc2c1C` [Hit B7, N~2~-[(2-ethyl-3-methyl-1H-indol-5-yl)methyl]-N~4~,6-dimethylpyrimidine-2,4-diamine] was tested, and the IC50 (A. fumigatus SglA) was 3 µM, the LD50 [1] was 200 µM and the “ErgGlc accumulation compared with hit B” value (wild-type Af [2]; 100 μM) was “significantly higher accumulation of ErgGlc than treatment with hit B”. The “hyphal length compared with hit B” value (wild-type Af [3]; 50 and 100 μM) was “shorter hyphae than hit B” and the “lung fungal burden of mice that survived 30 days” value (shortened to “lung fungal burden”) (Af wild-type strain [4]) was “full recovery”.
For `Cc1[nH]c2ccc(CNc3cc(N)ncn3)cc2c1C` [Hit B], the IC50 (Af SglA) was 1 µM and 1 to 2 µM, the IC50 (A. fumigatus SglA) was 10 µM and the IC50 (A. fumigatus SglA; ErgGlc as the substrate) was “low micromolar range”. For the same compound, the “ErgGlc accumulation versus control (untreated wild-type Af)” value (wild-type Af [2]) was “differed significantly from the control”, the “germination and hyphal growth of Af wild-type conidia” value (wild-type Af [3]; 50 and 100 μM, 37°C) was “significantly delays the germination and hyphal growth” and the survival of animals (Af wild-type strain [5]; 20 mg/kg/day intraperitoneally, 30 days, immunosuppressed mice) was 50%. The “lung fungal burden” value (Af wild-type strain [4]) was “no fungal burden in the lung tissue”.
`CC(Cc1ccc2c(c1)OCO2)c1c(-c2ccccc2)ncn1CCO` (centres unmarked) [Hit C] was tested, and the IC50 (Af SglA) was 2 µM and 1 to 2 µM, the IC50 (A. fumigatus SglA; ErgGlc as the substrate) was “low micromolar range” and the LD50 [1] was over 200 µM. The “ErgGlc accumulation versus control (untreated wild-type Af)” value (wild-type Af [2]) was “differed significantly from the control”, the hyphal growth (wild-type Af [3]; all concentrations tested (1 to 100 μM)) was “significantly reduced hyphal growth at all concentrations tested” and the “survival versus infected untreated mice” value (Af wild-type strain [5]; 60 mg/kg/day intraperitoneally) was “significantly prolonged mouse survival”. For the same compound, the survival of animals (Af wild-type strain [5]; 60 mg/kg/day intraperitoneally, until day 30 postinfection) was 20% and the “lung fungal burden” value (Af wild-type strain [4]) was “full lung clearance”.
In the case of Af SglA (Aspergillus fumigatus Af293), the Km [6] is reported as 86.2 µM.
